Patent publication US9394299B2, “Rilyazine derivatives and compositions for the treatment of cancer” (Warner Babcock Institute for Green Chemistry, LLC, priority 2013, dated 2016)

Assays:
Type in all cases: cell-based, human
Conditions in all cases: 10^−5 M
TK-10 (Renal Cancer) = test: NCI single point 10 μM, TK-10
Procedure: (§1) The screening is a two-stage process, beginning with the evaluation of all compounds against 60 cell lines at a single dose of 10^−5 M.
(§2) The human tumor cell lines of the cancer screening panel are grown in RPMI 1640 medium containing 5% fetal bovine serum and 2 mM L-glutamine. Cells are inoculated into 96 well microtiter plates in 100 μL at plating densities ranging from 5,000 to 40,000 cells/well depending on the doubling time of individual cell lines. After cell inoculation, the microtiter plates are incubated at 37° C., 5% CO2, 95% air and 100% relative humidity for 24 h prior to addition of experimental drugs. […]
(§3) Following drug addition, the plates are incubated for an additional 48 h at 37° C., 5% CO2, 95% air, and 100% relative humidity. […] Bound stain is subsequently solubilized with 10 mM trizma base, and the absorbance is read on an automated plate reader at a wavelength of 515 nm. […]
(§4) For the 1-dose 60 cell testing, the Growth Percent is calculated for each cell line/drug combination from the absorbance measurement for the no-drug control (C), the absorbance at time zero (Tz) and the absorbance measurement after incubation of the cells in the presence of drug (Ti): Growth Percent=[(Ti−Tz)/(C−Tz)]×100 for cell line/drug combinations for which Ti≧Tz. […]

MDA-MB-231/ATCC (Breast) = test: NCI single point 10 μM, MDA-MB-231/ATCC
Procedure: as §1, §2, §3, §4

[1] = tested on: NCI-H552 (non-small cell lung cancer); test: NCI single point 10 μM, NCI-H552
Procedure: as §1, §2, §3, §4

S=c1c2ncccc2c(-c2ccccn2)nn1C1CCCCC1 [RL-4, 7-cyclohexyl-5-(pyridin-2-yl)pyrido[2,3-d]pyridazine-8(7H)-thione]
Growth Percent (TK-10 (Renal Cancer)): 120.12%
Growth Percent (MDA-MB-231/ATCC (Breast)): 129.23%
Growth Percent [1]: 91.26%
